This is an account of results in US20060286608A1, “Method for screening transglutaminase 2 inhibitor or activator” (priority 2005, published 2006).

The test system of one experiment is BV-2 microglia. Kind of experiment: Nitric oxide measurement (Griess reaction) in LPS-activated BV-2 microglia. The experiment is classed as cell-based, murine. To be noted: BV-2 microglia, after 24 hours of LPS treatment (100 μg/ml). The protocol: (§1) The BV-2 cells were grown and maintained in DMEM (Dulvecco's modified Eagle's medium) (Invitrogen) supplemented with 10% FCS (fetal calf serum) and penicillin/streptomycin at 37° C. in a humidified incubator under 5% CO2. To activate BV-2, the cells were treated with LPS (100 μg/ml; Sigma) for 24 hours. After LPS treatment for 24 hours with or without inducible nitric-oxide synthase(iNOS) inhibitor, 0, 50, and 100 μM N^G-monomethyl-L-arginine(L-NMMA) (Sigma), proteins were extracted with radioimmunoprecipitation assay buffer (1× phosphate-buffered saline (PBS), 1% Nonidet P-40, 0.5% sodium deoxycholate and 0.1% SDS) containing protease inhibitors from BV-2 harvest, followed by analysis for TGase 2 activity.
Accumulated nitric oxide was measured in the cell supernatant after LPS treatment for 24 hours by Griess reaction. A 200 μl aliquot of the cell supernatant in each well of a 96-well microtiter plate was mixed with 100 μl of the Griess reagent [1% sulfanilamide (Fluka), 0.1% naphthylethylenediamine dihydrochloride (Fluka), 2.5% H3PO4], and the absorbance was read at 540 nm using a plate reader.
For orientation: The Griess reaction detects nitrite, a stable product of nitric oxide.

Experiment [1] relates to TGase 2. The experiment can be described thus: Semi-quantitative RT-PCR of mouse TGase 2 in BV-2 cells. The experiment is classed as cell-based. As to conditions: BV-2 cells treated with LPS. The protocol:
(§2) Semi-quantitative RT-PCR was performed using competitive mimic templates as internal controls. To prepare total RNA for RT-PCR, the cells were lysed with a TRIzol reagent. Samples of the total RNA were reverse-transcribed at 42° C. using the first strand synthesis kit (Promega) with avian myeloblastosis virus reverse transcriptase, and PCR was performed for the transcripts of iNOS and TGase 2 using corresponding specific primer sets. For each PCR, 1.5 mM MgCl2, 200 μM dNTP, 0.2 μM of each primer, 0.5 unit Taq polymerase, and a predetermined amount of a template were contained in a volume of 20 μl. The mimic templates of TGase 2 and iNOS were constructed by PCR. The mimics of mouse TGase 2 and mouse iNOS were prepared from 2014-2338 bp and 1451-2043 bp, respectively. RT-PCR products thus obtained were 526 bp for target TGase 2, 345 bp for mimic TGase 2, 593 bp for target iNOS, and 345 bp for mimic iNOS. For the RT-PCR, a primer set of SEQ. ID. NOS. 1 and 2, and a primer set of SEQ. ID. NOS.

In experiment [2] the test system is TGase 2. Kind of experiment: TGase activity assay in LPS-activated BV-2 microglia. As to conditions: BV-2 microglia, after 24 hours of LPS treatment (100 μg/ml). The experiment is classed as cell-based, murine. The protocol: as §1
Enzymatic activity was determined using a modified TGase assay method for measuring the incorporation of [1,4-^14C] putrescine into succinylated casein.

The subject of the next experiment is iNOS. The experiment can be described thus: Semi-quantitative RT-PCR of mouse iNOS in BV-2 cells. The format is cell-based. As to conditions: BV-2 cells treated with LPS. As for the experimental part: as §2
Experiment [3] relates to TGase 2. As to conditions: microglia after 24 hours of exposure to LPS; previous study (Park et al. 2004); cited from earlier work.
The subject of experiment [4] is TGase 2. Kind of experiment: Immunohistochemical staining of TGase 2 in rat brain after LPS injection. As to conditions: rats killed 1 hour after peritoneal injection of 2.5 mg/kg LPS, compared with saline alone. The format is in vivo. The protocol:
Male Sprague-Dawley rats (Samtako, Osan, Korea) weighing 190-220 g were used as experimental models for intraperitoneal LPS injection as described previously. All experimental procedures were approved by the Seoul National University Care of Experimental Animals Committee. A solution of LPS (2.5 mg/kg) in 0.9% saline or 0.9% sterile saline was intraperitoneally injected into rats. To determine the effect of TGase inhibitors, rats were intraperitoneally injected with an R2 peptide (25 μM), an E2 peptide (25 μM, and dexamethasome (1 mg/kg) at 30 min before and at the time of LPS injection. Dexamethasome injection was used as a positive control.
After 1 hour of intraperitoneal injection with LPS or saline, rats were anesthetized with 1% ketamine (30 mg/kg) and xylazine hydrochloride (4 mg/kg). Brains were perfused through the heart with saline containing 0.5% sodium nitrite and 10 units/ml heparin, followed by perfusion with 4% paraformaldehyde in PBS (0.1 M, pH 7.2). Brains were removed, rinsed with PBS, and cryoprotected in sucrose. Sections were prepared on a sliding microtome (40 μm) at the level of the subfornical organ. A monoclonal antibody (TG-100; NeoMarkers) to TGase 2 was used to subject TGase 2 to immunohistochemical staining. Brain sections were blocked with 1% BSA in PBS and incubated overnight with a primary antibody solution (1:200 dilution). […]

For the substance lipopolysaccharide [LPS], in the experiment with BV-2 microglia, the “release of NO, increase” value is 10 fold. For the same substance, the “TGase 2 by RT-PCR, increase” value in the experiment on TGase 2 [1] is on record as 3 fold. For the same substance, the “TGase 2 activity, increase” value in the experiment with TGase 2 [2] came to 5 fold. In the experiment on iNOS, the “iNOS by RT-PCR, increase” value turned out to be 10 fold. Also, the “TGase activity, increase” value in the experiment on TGase 2 [3] is reported as “about 5 fold”. The “TGase 2 expression in brains” value in the experiment with TGase 2 [4] is given as “increased”.
